Assay results: US20240245654A1, “ADJUNCTIVE D-CYCLOSERINE AUGMENTATION OF TRANSCRANIAL MAGNETIC STIMULATION (TMS) THERAPY FOR MAJOR DEPRESSIVE DISORDER” (MCGRX CORP., priority 2021, published 2024)
“Also recorded” adds a separate entry of the source.

Tests used:
[1] = system: suicidal ideation and suicide risk in MDD; assay: RCT of iTBS+DCS in MDD: suicidal ideation and death-implicit association test; type: in vivo, human; details: iTBS+DCS vs iTBS+Placebo, listed as DCS
From the text: Participants also completed a computerized neuropsychological test called the death-implicit association test that is associated with suicide attempts, both retrospectively and prospectively.

[2] = system: TMS-associated plasticity; details: low dose; cited from earlier work
[3] = system: neurite density at the iTBS target site; assay: RCT of iTBS+DCS in MDD: NODDI diffusion MRI at iTBS target site; type: in vivo, human; details: iTBS+DCS treated participants; not in iTBS+Placebo; listed as DCS
From the text: Neurite Density and Dispersion Orientation Index (NODDI)^32 is an MRI tool that provides a proxy measure of neurite morphology and arborization that has been validated against histology in model species^33,34. While more commonly applied to white matter, NODDI has discriminating power in cortical gray matter in both health and disease^35-37. Neurite density metrics reflect the volume within neurites, whereas orientation dispersion metrics capture the tortuosity or complexity of neural processes, both of which are affected in MDD.
In the randomized placebo-controlled trial discussed in the Example above, diffusion magnetic resonance data to quantify Neurite Density and Dispersion Orientation Index (NODDI)^32 were acquired using a 3T General Electric Discovery MR750 scanner at the Seaman Family MR Research Center. This method provides a proxy measure of histopathological features in brain white and gray matter to describe neurite morphology and arborization.

[4] = system: motor cortex (iTBS synaptic plasticity); assay: Motor cortex iTBS, MEP and stimulus response curve, placebo-controlled crossover study in Major Depressive Disorder (NCT03937596); type: in vivo, human
[5] = system: motor cortex (MEP facilitation after iTBS); details: healthy participants, described elsewhere; cited from earlier work
[6] = system: treatment resistant major depressive disorder (MDD); assay: 4-week double-blind placebo-controlled RCT of iTBS+DCS in treatment resistant MDD: depression, CGI, anxiety, wellbeing outcomes; type: in vivo, human; details: for rate of clinical remission (MADRS≤10): iTBS+placebo 4.2%
Description: Methods: In this preregistered (NCT03937596) single site 4-week randomized double-blind placebo-controlled trial, fifty participants with treatment resistant MDD were randomized 1:1 to ITBS+Placebo or iTBS+D-Cycloserine (100 mg). Participants were asked to take the adjunct or placebo at least 60 minutes prior to daily iTBS treatments for the first two weeks, and iTBS continued without an adjunct for weeks three and four. We utilized a MagPro X100 stimulator (MagVenture, Denmark) and a COOL-B70 coil. Targeting of the left DLPFC involved surface anatomy and the Beam F3 method^30. Although anatomical and functional neuroimaging was collected as part of the study protocol, targeting utilizing surface anatomy was chosen to increase generalizability to clinical settings where neuroimaging derived targets are not feasible. This target was registered to either the participant's anatomical MRI or to a template brain for those who could not complete neuroimaging (Visor2, ANT Neuro, the Netherlands). Resting motor threshold (rMT) was determined using electromyographic (EMG) electrodes placed over the first dorsal interosseous muscle, with threshold determined as the stimulus intensity required to elicit a minimum of 5 out of 10 EMG responses of >50 uV.
Patients all received active-iTBS, consisting of a total of 600 pulses per session delivered in twenty trains of triplets at 50 Hz repeated at 5 Hz (2 s on 8 s off) at 80% rMT. Participants received daily treatments Monday through Friday for a total of 20 treatments.
The primary outcome was change in depressive symptoms as measured by the Montgomery Asberg Depression Rating Scale (MADRS) at the conclusion of treatment. Secondary outcomes included clinical response (≥50% improvement in MADRS), clinical remission (MADRS≤10), and clinical global impression (CGI).

[7] = system: tDCS plasticity; details: compared with tDCS alone; cited from earlier work
[8] = system: MDD-related cognitive impairment; assay: RCT of iTBS+DCS in MDD: cognition (PDQ, THINC-it N-Back); type: in vivo, human; details: iTBS+DCS 100 mg vs iTBS+Placebo; listed as DCS
Description: The efficacy of 100 mg DCS as an adjunctive strategy to iTBS to reduce MDD-related cognitive impairment and/or improve cognition in MDD was be tested in the randomized controlled trial described in the above Example.
Participants completed the Cognitive Failures Questionnaire (CFQ31) and the Perceived Deficits Questionnaire (PDQ) as well as the THINC-it computerized neurocognitive battery at baseline and after treatment.

[9] = system: left primary motor cortex (iTBS synaptic plasticity); assay: Repeated spaced iTBS of motor cortex, MEP and stimulus response curve, placebo-controlled crossover trial in healthy individuals (NCT05081986); type: in vivo, human; details: n=20 healthy, vs placebo
Description: Methods: This experiment was a pre-registered randomized, double-blind, placebo-controlled crossover trial (NCT05081986). Twenty healthy individuals were randomly assigned to one of two experimental arms of the crossover study: a) Placebo-D-cycloserine and b) D-cycloserine-placebo. In the placebo arm, participants received one oral dose of 100 mg microcrystalline cellulose one hour prior to iTBS. In the D-cycloserine 100 mg arm, participants received one oral dose of 100 mg D-cycloserine one hour before ITBS. Participants attended the laboratory on two occasions to complete both arms of the crossover design. Time of arrival was standardized across visits, and visits were separated by at least seven days.
All TMS pulses were delivered using a neuro-navigated MagPro stimulator (X100 system, MagVenture, Denmark) with a biphasic Cool-B70 figure-eight coil. […] The peak-to-peak amplitude of MEPs were recorded from two surface electromyographic (EMG) electrodes placed on the right first dorsal interosseous muscle (FDI), with the ground electrode placed on the right styloid process. […]
TMS was delivered to the left primary motor cortex to identify the area that, when stimulated, elicited the largest peak-to-peak FDI MEP amplitude (the hotspot). […] The resting motor threshold (RMT) was determined as the lowest stimulator output, which elicited peak-to-peak MEP amplitudes≥0.05 mV in 5/10 trials. […]

N[C@@H]1CONC1=O [D-cycloserine]
suicidal ideation [1]: rapid resolution of suicidal ideation; also recorded: greater reductions in suicidal ideation | death-implicit association test performance ([1]; persisted when controlling for depressive symptom improvement): showed improvement; also recorded: greater reductions in scores | short-term facilitation with high-frequency rTMS [2]: increases short-term facilitation | neurite density at the target site (NODDI) [3]: increased neurite density; also recorded: Neurite density increases | relationship between ΔAUC 90 min and ΔAUC NextDay of the SRC ([4]; D-cycloserine groups, placebo groups weak negative relationship): positively correlated; also recorded: positive relationship | MEP time course following iTBS ([4]; MDD participants n=12, 100 mg, vs placebo arm): did not impact | change in stimulus response curve the day following iTBS ([4]; MDD participants, 100 mg, compared with healthy-placebo and MDD-placebo): normalized | facilitation of MEPs after iTBS [5]: blunted facilitation of MEPs | OR of clinical response ([6]; 2 weeks, iTBS+DCS vs iTBS+placebo, 95% CI: 1.41-21.03): 5.45 | rate of clinical remission (MADRS≤10) ([6]; 2 weeks): 17.4% | rate of clinical response (≥50% improvement in MADRS) ([6]; 2 weeks, iTBS+placebo 16.7%): 52.2% | OR of clinical remission ([6]; 4 weeks, iTBS+DCS vs iTBS+placebo, 95% CI: 1.68-129.52): 14.78 | OR of clinical response ([6]; 4 weeks, iTBS+DCS vs iTBS+placebo, 95% CI: 1.91-24.77): 6.88 | rate of clinical remission (MADRS≤10) ([6]; 4 weeks): 39.1% | rate of clinical response (≥50% improvement in MADRS) ([6]; 4 weeks, iTBS+placebo 29.2%): 73.9% | change in depressive symptoms (MADRS scores) ([6]; iTBS+DCS 100 mg vs iTBS+Placebo, mITT, 4 weeks, listed as DCS): significant improvement in depressive symptoms; also recorded: greater reductions in depressive symptoms | MADRS mean difference, per treatment analyses ([6]; iTBS+DCS vs iTBS+Placebo, 2 weeks, 95% CI: 0.43-7.51): 3.97 | MADRS mean difference, per treatment analyses ([6]; iTBS+DCS vs iTBS+Placebo, 4 weeks, 95% CI: 2.66-11.52): 7.09 | Hedge's g (MADRS change) ([6]; iTBS+DCS vs iTBS+Placebo, 95% CI: 0.34-1.62): 0.99 | CGI-Improvement scores ([6]; iTBS+DCS vs iTBS+Placebo, at 2 weeks and 4 weeks, listed as DCS): greater improvements on the clinical global impression scale; also recorded: greater improvement | mean difference on the MADRS ([6]; iTBS+DCS vs iTBS+Placebo, mITT, baseline to 4 weeks, 95% CI: 2.43-9.88, p=0.001): 6.15 | CGI-severity scale ([6]; iTBS+DCS vs iTBS+Placebo, p=0.0014, listed as DCS): greater improvements in clinical global impression severity scores | visual analog scale for overall wellbeing ([6]; iTBS+DCS vs iTBS+Placebo, p=0.018, listed as DCS): greater improvements in overall wellbeing; also recorded: greater improvement | self-reported anxiety symptoms (GAD-7) ([6]; iTBS+DCS vs iTBS+Placebo, p=0.035, listed as DCS): greater improvements in anxiety; also recorded: greater improvement | duration of sustained plasticity with transcranial direct current stimulation [7]: more than 12 hours | objective cognitive function, N-Back task of working memory [8]: significantly greater improvements; also recorded: significant improvements | subjective cognitive function (Perceived Deficits Questionnaire) [8]: significantly greater improvements; also recorded: significant improvements | facilitation of MEP peak to peak amplitude after repeated spaced iTBS ([9]; 100 mg oral one hour before iTBS, two iTBS separated by an hour): not impacted | stimulus response curve change after iTBS ([9]; adjunctive 100 mg): significant and sustained facilitation
